Measurements: publication PMC3006138, “Fexinidazole – A New Oral Nitroimidazole Drug Candidate Entering Clinical Development for the Treatment of Sleeping Sickness” (PLoS Neglected Tropical Diseases, 2010)
Where two headings read alike, the source gives them in different places.

Experiment: Rat 28-day toxicokinetics
Format: in vivo
Settings: plasma, po; for AUC: read-out: AUC within 24 hours post dosing; for half-life: read-out: apparent terminal half-life (converted)
Protocol: In the rat repeated-dose toxicokinetic study, fexinidazole was administered orally by gavage once a day for 28 consecutive days to ten or fifteen Crl:CD (SD)IGS BR rats/sex/group at doses of 50, 200, or 800 mg/kg/day. A control group received the vehicle alone (5% Tween 80/0.5% methocel). Ten animals/sex/group were sacrificed at the end of the treatment period on day 29 or 30 of study. The remaining 5 animals/sex/group in the control and high-dose groups were sacrificed on day 43 at the end of a 2-weeks observation period. Systemic exposure to fexinidazole and its sulfoxide and sulfone metabolites was evaluated in three additional animals/sex/group. Samples were taken at predose, and 30 min, 1, 2, 4, 8 and 24 h after dosing on days 1, 14, and 28, and in addition at 48 and 72 h after treatment on day 28.
Toxicokinetic Report for the study No. 0504-2007
SD Standard deviation of the mean […]
t1/2,z Terminal half-life tmax Time to peak plasma concentration
ULOQ Upper limit of quantification
The study was conducted according to the study protocol and related amendment.
Fexinidazole was orally given by gavage once a day for 28 days to male and female Sprague Dawley rats according to the following scheme
Fexinidazole was suspended with 5% Tween 80 in 0.5% Methyl cellulose 400 cP.
6.2. Sample Collection and Handling
Blood samples (about 0.25 mL/sampling time) were withdrawn from retro-orbital sinus plexus under isofluorane anesthesia and put in heparinized plastic tubes kept on a ice-water bath, then centrifuged for 10 min at 1200g at +4°C and two aliquots of about 50 μL of plasma were stored in a freezer at -80°C until analysis. Blood was taken from three rats/gender/dose on Days 1 and 14 at pre-dose and 0.5, 1, 2, 4, 8 and 24 hours after dosing, on Day 28 at pre-dose and 1, 2, 4, 8, 24, 48 and 72 hours after dosing. After the administration of the vehicle, the samples were taken from three rats/gender at pre-dose and […]
6.3. Bioanalytical Method
Rat plasma concentrations of Fexinidazole and its sulfoxide (M1) and sulfone (M2) metabolites were determined by a validated LC/MS/MS method. The calibration range for the assay was 5-1000 ng/mL for Fexinidazole and 25-25000 ng/mL for M1 and M2.
Study samples containing analytes concentrations above the upper limit of quantitation were diluted with blank matrix prior to analysis.
6.4. Pharmacokinetic Calculations
Pharmacokinetic evaluation was carried out using non-compartmental approach with the aid […]
Excel spreadsheet (Microsoft Inc., Seattle, USA). […]
In the calculations, the undetectable concentrations between detectable ones were ignored.
After each dose level, Cmax and tmax of Fexinidazole and sulfoxide and sulfone metabolites […]
linear trapezoidal rule up to the last detectable concentration. On Day 28, since the blood […]
24 hours post dosing was calculated and denoted AUC0-24. This AUC was calculated in order to compare AUC values on Day 28 to those on Day 1 and Day 14. On Day 28, in addition, the half-life of the terminal phase, t1/2,z, was determined by linear regression analysis of the natural-log concentration vs. time curve, where t1/2,z = ln(2)/slope of the regression line.
Fexinidazole and metabolites accumulation ratios, based on Cmax (RA,Cmax), AUC0-24 (RA,AUC0-24) and AUC0-t(last) (RA,AUC0-t(last)), were calculated as the ratio between the parameters obtained on Day 14 and Day 28 to the corresponding one at Day 1. […]
pharmacokinetic parameters of each compound sorted by dose, gender and day of dosing. […]
compound are reported in Tables 1 and 2, whilst individual and mean parameters of each […]
Individual and mean (±SD, CV%) plasma
2A1 - 19A1 of Appendix 1. Individual plasma concentrations of Fexinidazole and both metabolites are plot in Figures 1 - 9, whilst the mean concentrations are plot in Figures 10 - 15. Mean normalized Cmax and AUC0-t(last) values of Fexinidazole and metabolites vs. dose are plot in Figures 16 - 21.
In-study bioanalytical validation data are reported in Appendix 2. All analytical batches met […]

[1] = Sprague Dawley (Crl:CD (SD)IGS BR), 50 mg/kg/day, Day 28, female
[2] = Sprague Dawley (Crl:CD (SD)IGS BR), 200 mg/kg/day, Day 28, female
[3] = Sprague Dawley (Crl:CD (SD)IGS BR), 200 mg/kg/day, Day 28, male
[4] = Sprague Dawley (Crl:CD (SD)IGS BR), 800 mg/kg/day, Day 28, female (n=2)
[5] = Sprague Dawley (Crl:CD (SD)IGS BR), 800 mg/kg/day, Day 28, male
[6] = Sprague-Dawley (Crl:CD (SD)IGS BR), 50 mg/kg/day, 50 mg/kg/day po, day 1
[7] = Sprague-Dawley (Crl:CD (SD)IGS BR), 50 mg/kg/day, 50 mg/kg/day po, day 14
[8] = Sprague-Dawley (Crl:CD (SD)IGS BR), 200 mg/kg/day, 200 mg/kg/day po, day 1
[9] = both sexes, Sprague-Dawley (Crl:CD (SD)IGS BR), 200 mg/kg/day, 200 mg/kg/day po, day 14
[10] = both sexes, Sprague-Dawley (Crl:CD (SD)IGS BR), 800 mg/kg/day, 800 mg/kg/day po, day 1
[11] = both sexes, Sprague-Dawley (Crl:CD (SD)IGS BR), 800 mg/kg/day, 800 mg/kg/day po, day 14

CSc1ccc(OCc2ncc([N+](=O)[O-])n2C)cc1 [Fexinidazole, 1-methyl-2-((p-(methylthio)phenoxy)methyl)-5-nitroimidazole]
AUC [1]: 1450 ± 335 ng·h/mL | half-life [1]: 5.1 ± 5.1 h | half-life (Sprague Dawley (Crl:CD (SD)IGS BR), 50 mg/kg/day, Day 28, male): 4.7 ± 1.2 h | AUC [2]: 4440 ± 514 ng·h/mL | half-life [2]: 6.3 ± 4.5 h | AUC [3]: 2330 ± 1760 ng·h/mL | half-life [3]: 8.8 ± 4.8 h | AUC [4]: 7640 ± 1780 ng·h/mL | half-life [4]: 6.7 ± 2.3 h | AUC [5]: 3170 ± 734 ng·h/mL | half-life [5]: 11 ± 2.7 h | Cmax [6]: 90 ± 70 ng/mL | Tmax [6]: 1.42 ± 1.28 h | AUC(0-t) (Sprague-Dawley (Crl:CD (SD)IGS BR), 50 mg/kg/day, 50 mg/kg/day po, day 1, read-out: AUC0-t(last)): 470 ± 340 ng·h/mL | Cmax [7]: 180 ± 140 ng/mL | Tmax [7]: 1.92 ± 1.2 h | AUC(0-t) (Sprague-Dawley (Crl:CD (SD)IGS BR), 50 mg/kg/day, 50 mg/kg/day po, day 14, read-out: AUC0-t(last)): 830 ± 540 ng·h/mL | Cmax [8]: 380 ± 280 ng/mL | Tmax [8]: 1.92 ± 1.2 h | AUC(0-t) (both sexes, Sprague-Dawley (Crl:CD (SD)IGS BR), 200 mg/kg/day, 200 mg/kg/day po, day 1, read-out: AUC0-t(last)): 2160 ± 1340 ng·h/mL | Cmax [9]: 520 ± 300 ng/mL | Tmax [9]: 2.08 ± 1.11 h | AUC(0-t) (both sexes, Sprague-Dawley (Crl:CD (SD)IGS BR), 200 mg/kg/day, 200 mg/kg/day po, day 14, read-out: AUC0-t(last)): 3020 ± 1470 ng·h/mL | Cmax [10]: 1480 ± 710 ng/mL | Tmax [10]: 1.58 ± 0.66 h | AUC(0-t) (both sexes, Sprague-Dawley (Crl:CD (SD)IGS BR), 800 mg/kg/day, 800 mg/kg/day po, day 1, read-out: AUC0-t(last)): 12800 ± 4100 ng·h/mL | Cmax [11]: 1020 ± 870 ng/mL | Tmax [11]: 3.17 ± 2.84 h | AUC(0-t) (both sexes, Sprague-Dawley (Crl:CD (SD)IGS BR), 800 mg/kg/day, 800 mg/kg/day po, day 14, read-out: AUC0-t(last)): 9290 ± 5200 ng·h/mL | Cmax (female, Sprague Dawley (Crl:CD (SD)IGS BR), 50 mg/kg, Day 1, female): 149 ± 46 ng/mL | AUC(0-t) (female, Sprague Dawley (Crl:CD (SD)IGS BR), 50 mg/kg, Day 1, female, read-out: AUC0-t(last)): 759 ± 153 ng·h/mL | Cmax (female, Sprague Dawley (Crl:CD (SD)IGS BR), 50 mg/kg/day, Day 28, female): 422 ± 358 ng/mL | AUC(0-t) (female, Sprague Dawley (Crl:CD (SD)IGS BR), 50 mg/kg/day, Day 28, female, read-out: AUC0-t(last)): 1630 ± 570 ng·h/mL | Cmax (female, Sprague Dawley (Crl:CD (SD)IGS BR), 200 mg/kg, Day 1, female): 604 ± 211 ng/mL | AUC(0-t) (female, Sprague Dawley (Crl:CD (SD)IGS BR), 200 mg/kg, Day 1, female, read-out: AUC0-t(last)): 3200 ± 856 ng·h/mL | Cmax (female, Sprague Dawley (Crl:CD (SD)IGS BR), 200 mg/kg/day, Day 28, female): 903 ± 87 ng/mL | AUC(0-t) (female, Sprague Dawley (Crl:CD (SD)IGS BR), 200 mg/kg/day, Day 28, female, read-out: AUC0-t(last)): 4750 ± 508 ng·h/mL | Cmax (female, Sprague Dawley (Crl:CD (SD)IGS BR), 800 mg/kg, Day 1, female): 1480 ± 200 ng/mL | AUC(0-t) (female, Sprague Dawley (Crl:CD (SD)IGS BR), 800 mg/kg, Day 1, female, read-out: AUC0-t(last)): 15700 ± 3610 ng·h/mL | Cmax (female, Sprague Dawley (Crl:CD (SD)IGS BR), 800 mg/kg/day, Day 28, female (n=2)): 749 ± 90 ng/mL | AUC(0-t) (female, Sprague Dawley (Crl:CD (SD)IGS BR), 800 mg/kg/day, Day 28, female (n=2), read-out: AUC0-t(last)): 7940 ± 2210 ng·h/mL | Cmax (male, Sprague Dawley (Crl:CD (SD)IGS BR), 50 mg/kg, Day 1, male): 39 ± 17 ng/mL | AUC(0-t) (male, Sprague Dawley (Crl:CD (SD)IGS BR), 50 mg/kg, Day 1, male, read-out: AUC0-t(last)): 178 ± 99 ng·h/mL | Cmax (male, Sprague Dawley (Crl:CD (SD)IGS BR), 50 mg/kg/day, Day 28, male): 133 ± 24 ng/mL | AUC(0-t) (male, Sprague Dawley (Crl:CD (SD)IGS BR), 50 mg/kg/day, Day 28, male, read-out: AUC0-t(last)): 889 ± 287 ng·h/mL | Cmax (male, Sprague Dawley (Crl:CD (SD)IGS BR), 200 mg/kg, Day 1, male): 165 ± 97 ng/mL | AUC(0-t) (male, Sprague Dawley (Crl:CD (SD)IGS BR), 200 mg/kg, Day 1, male, read-out: AUC0-t(last)): 1120 ± 708 ng·h/mL | Cmax (male, Sprague Dawley (Crl:CD (SD)IGS BR), 200 mg/kg/day, Day 28, male): 255 ± 136 ng/mL | AUC(0-t) (male, Sprague Dawley (Crl:CD (SD)IGS BR), 200 mg/kg/day, Day 28, male, read-out: AUC0-t(last)): 4410 ± 3980 ng·h/mL | Cmax (male, Sprague Dawley (Crl:CD (SD)IGS BR), 800 mg/kg, Day 1, male): 1480 ± 1110 ng/mL | AUC(0-t) (male, Sprague Dawley (Crl:CD (SD)IGS BR), 800 mg/kg, Day 1, male, read-out: AUC0-t(last)): 10000 ± 2160 ng·h/mL | Cmax (male, Sprague Dawley (Crl:CD (SD)IGS BR), 800 mg/kg/day, Day 28, male): 523 ± 127 ng/mL | AUC(0-t) (male, Sprague Dawley (Crl:CD (SD)IGS BR), 800 mg/kg/day, Day 28, male, read-out: AUC0-t(last)): 11900 ± 5360 ng·h/mL
